The source of these data is patent US20190352288A1, “MATRIX METALLOPROTEINASE (MMP) INHIBITORS AND METHODS OF USE THEREOF” (Foresee Pharmaceuticals Co., Ltd., priority 2018, published 2019).

The target of the assay is T1, recombinant human MMP-2 (Homo sapiens, UniProt P08253).
T1 sequence (P08253 110-660): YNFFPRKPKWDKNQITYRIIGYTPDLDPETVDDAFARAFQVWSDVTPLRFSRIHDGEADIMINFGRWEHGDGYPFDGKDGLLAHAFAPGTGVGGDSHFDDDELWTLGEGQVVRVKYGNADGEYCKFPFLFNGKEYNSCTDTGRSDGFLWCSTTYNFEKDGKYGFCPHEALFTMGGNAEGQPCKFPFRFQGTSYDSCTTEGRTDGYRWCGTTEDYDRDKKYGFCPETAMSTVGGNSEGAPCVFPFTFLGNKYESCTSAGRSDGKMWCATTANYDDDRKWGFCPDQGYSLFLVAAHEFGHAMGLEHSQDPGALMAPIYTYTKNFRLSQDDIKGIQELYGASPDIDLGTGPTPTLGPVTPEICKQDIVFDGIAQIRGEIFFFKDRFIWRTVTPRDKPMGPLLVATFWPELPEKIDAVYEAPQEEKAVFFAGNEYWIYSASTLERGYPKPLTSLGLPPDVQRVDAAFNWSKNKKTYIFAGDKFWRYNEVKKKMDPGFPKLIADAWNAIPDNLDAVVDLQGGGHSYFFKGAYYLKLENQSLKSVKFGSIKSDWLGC
Description: MMP selectivity assay, MMP-2. The assay is classed as biochemical. To be noted: Table 2 selectivity profile. Here is the method:
The inhibitory effect of compounds on the rate of cleaving fluorogenic MMP substrate (Enzo, BML-P128) by recombinant human MMP-12 catalytic domain (Enzo, BML-SE138) was carried out by methods known in the art. Briefly, to each well of a 96-well black opaque plate, all the reagents were sequentially added by pipetting, and the final reaction contained 4 nM of recombinant human MMP-12 catalytic domain, 4 μM of fluorogenic MMP substrate, and various concentrations (0.15 nM to 10,000 nM) of tested compound dilutions in HEPES buffer (pH 7.5) containing 10 mM of CaCl2), 0.01% Brij® 35 (polyoxyethylene (23) lauryl ether), and 0.1 mg/ml of BSA.
The enzyme and compounds were pre-incubated on a shaker to mix in wells. After an hour of mixing, fluorogenic substrate was added to each well. Reaction without enzyme was used as a blank control in the plate. The plate was then fed into a plate reader to measure fluorescence intensity at Excitation/Emission wavelengths of 340 nm/440 nm every 10 mins for at least 1 hour at 37° C. The IC50 of each compound in MMP-12 inhibition was determined by using a readout obtained at time point 30 minutes.
The MMP selectivity assay was performed by using other recombinant human MMPs, including MMP-1, MMP-2, MMP-3, MMP-7, MMP-8, MMP-9, MMP-10, MMP-13, and MMP-14. The IC50 of the compounds for the other recombinant human MMPs was determined as described above in Example 1, and are shown in Table 2.

In the case of `Cc1cc(COc2ccc(Sc3ccncc3C3NC(=O)NC3=O)cc2)ccn1` (stereo not shown) [PC-16], the IC50 is 100 to 1000 nM.

The IC50 is the concentration at which inhibition is half-maximal.
